Source: US20120052573A1, “ONE-POT SYNTHESIS OF LINEAR-LIKE POLYETHYLENIMINE FOR INTRACELLULAR IMAGING AND NUCLEIC ACID DELIVERY” (NATIONAL HEALTH RESEARCH INSTITUTES, priority 2010, published 2012)

Tested on: H460 human lung cancer cells
Test: Flow cytometry cell cycle arrest analysis after cyclin B1 siRNA delivery
Assay type: cell-based
Details: [siRNA]=200 nM, [compound b]=100 ng/mL, 24 h, no fetal bovine serum, n=3
Protocol: Flow cytometry for cell cycle analysis. Human lung cancer cells, H460, at 2×10^5 cells/mL were treated with cyclin B1siRNA alone (200 nM) or compound b/siRNA complex ([compound b]=100 ng/mL, [cyclin B1 siRNA]=200 nM) in RPMI 1640 medium for […] at 37° C., 5% CO2(g). After the treatments, cells were washed twice in PBS buffer solution and fixed in cold. PBS solution containing 75% ethanol. After washing with PBS and centrifugation at 1,500 rpm for 5 min, cells were stained with propidium iodide (PI) and analyzed by FACS Calibur (BD PharMingen, N.J., USA) using WinMDI 2.9 analysis software. The cyclic B1 siRNA sequence is 5′-[…]-3 (SEQ ID NO: 1) for sense and 5′-[…]-3 (SEQ ID NO: 2) (NCBI accession number of cyclin B1: NM031966) for anti-sense.
PEI has a high cationic density and can associate with nucleic acids such as siRNA to form a cationic polyplex. The efficiency of the PEI according to the invention as a delivery vehicle for siRNA was examined. Compound b (LPEI) was used to associate with a siRNA for silencing Cyclin B1, which is an indispensable protein for cell mitosis. […] The population proportions of cells were analyzed and summarized in histogram profile (FIG. 4E). […]
H460 lung cancer cells were treated with compound b/siRNA complex for 24 h, and the cell cycle distribution was examined by flow cytometry. […] FL2A: fluorescence pulse area. *p<0.05.

Q: For “siRNA alone: cyclin B1 siRNA, sense SEQ ID NO: 1, anti-sense SEQ ID NO: 2 (sense ACAUGAGAGCCAUCCUAAUUGTT; antisense CAAUUAGGAUGGCUCUCAUGUTT; chemistry not given here)”, which “population in G2/M phase of the cell cycle, increase compared with control” value is on record?
A: 5.52%±0.406
